# Patent US11674962B2, “Therapeutic and diagnostic methods for cancer” (Genentech, Inc., priority 2017, dated 2023)
# Values joined by “and” are separate entries in the source; they are usually repeats but may differ in a detail not shown here. Equal entries are not always repeated.
# Columns and labels:
# [1] = tested on: locally advanced or metastatic non-small cell lung cancer (NSCLC); experiment: POPLAR phase II clinical trial (NCT01903993): atezolizumab vs docetaxel, outcomes by bTMB score; format: in vivo, human; details: for OS HR (95% CI) / PFS HR (95% CI) / OS HR / PFS HR: atezolizumab vs docetaxel
# Description: A blood-based assay was used to evaluate the association between clinical response to treatment with atezolizumab (MPDL3280A) and blood tumor mutational burden (bTMB) score in patients with non-small cell lung cancer (NSCLC) enrolled in two clinical trials, a phase II clinical trial, POPLAR (Clinical Trial ID No.: NCT01903993), and a phase III clinical trial, OAK (Clinical Trial ID No.: NCT02008227), in which atezolizumab was administered as a monotherapy.
# Pre-treatment blood samples from patients with NSCLC who were enrolled in the POPLAR and/or the OAK studies, in which atezolizumab was administered as a monotherapy, were evaluated for bTMB score and/or maximum somatic allele frequency (MSAF).
# The POPLAR (Clinical Trial ID No.: NCT01903993) patient population evaluated for bTMB score consisted of 273 patients. Patients were eligible for enrollment in the POPLAR study if they had locally advanced or metastatic (e.g., stage IIIB, stage IV, or recurrent) non-small cell lung cancer (NSCLC); disease progression during or following treatment with a prior platinum-containing regimen for locally advanced, unresectable/inoperable, or metastatic NSCLC, or disease recurrence within 6 months of treatment with a platinum-based adjuvant/neoadjuvant regimen; measurable disease, as defined by RECIST v1.1; and an Eastern Cooperative Oncology Group (ECOG) performance status of 0 or 1. Participants were randomized to receive either atezolizumab at a dose of 1200 mg intravenously every three weeks or docetaxel 75 mg per meter square (mg/m^2) intravenously every three weeks. Treatment with atezolizumab could be continued as long as participants were experiencing clinical benefit, i.e., in the absence of unacceptable toxicity or symptomatic deterioration attributed to disease progression.
# Analysis of bTMB was performed retrospectively. Progression-free survival (PFS) was defined as the time between date of randomization and date of first documented disease progression as assessed by the investigator using RECIST v.1.1 or death from any cause, whichever occurred first. Overall survival (OS) was defined as the time between the date of randomization until death due to any cause. Treatment arms were compared for OS and PFS individually using a univariate Cox regression model without stratification in the biomarker evaluable-population (BEP) and their subgroups or using a stratified (by randomization stratification factors) Cox model in the ITT population. No multiplicity correction was applied to p-values or confidence intervals (CI). Kaplan-Meier methodology was used to estimate median OS and PFS and construct survival curves.
# In the POPLAR ITT population (N=287), 273 samples were available for analysis. Of these, 6 were removed for sample contamination >1%; 9 were removed for median exon coverage <800×; and 47 were removed for low MSAF<1%.
# The POPLAR BEP (N=211) includes 15 patients with EGFR mutation or ALK rearrangement, and 196 without known alterations.
# To identify somatic mutations and calculate a bTMB score, whole blood samples obtained from each patient (collected in EDTA or Streck tubes) were processed through a series of spins to isolate plasma, from which cell free DNA (cfDNA) was extracted for sequencing analysis. Specifically, at least 20 ng purified cfDNA was used for library construction. Next-generation sequencing libraries using fragment barcodes and hybrid capture were constructed to analyze and sequence a pre-determined set of 394 genes that covered approximately 1.125 Mb of the exome. Specifically, purified libraries were hybrid captured using a 394-gene bait set and then further purified, pooled and loaded on an ILLUMINA® HISEQ® 4000 sequencing system. Sequenced libraries were aligned and sorted. […]
# [2] = tested on: non-small cell lung cancer (NSCLC); experiment: Combined POPLAR and OAK studies: PFS by bTMB score; format: in vivo, human; details: combined BEP of POPLAR and OAK (n=775), reference bTMB score of 14, atezolizumab vs docetaxel
# Text: FIG. 7A is a graph showing the Kaplan-Meier Curve of PFS of the combined BEP of patients (nBEP=775 patients; HR=0.62) in the atezolizumab treatment arm (black) and docetaxel control arm (gray) of the POPLAR and OAK studies, each arm stratified according to bTMB score. Patients with a bTMB score that is greater than, or equal to, a reference bTMB score of 14 are indicated by solid lines (Dx+) and patients with a bTMB that is lower than a reference bTMB score of 14 are indicated by dashed lines (Dx−). […] The time point for each column corresponds to the times shown along the x-axis of the above graph. Patient samples having an MSAF less than 1% were excluded from analysis. Sequence coverage was greater than, or equal to, 800. […]
# Analysis of bTMB was performed retrospectively. Progression-free survival (PFS) was defined as the time between date of randomization and date of first documented disease progression as assessed by the investigator using RECIST v.1.1 or death from any cause, whichever occurred first. […]
# [3] = bTMB score subgroup ≥10 (96 patients)
# [4] = bTMB score subgroup ≥16 (63 patients)
# [5] = bTMB score subgroup ≥20 (42 patients)
substance,measurement,setting,value
atezolizumab,OS HR (95% CI),[1]; BEP (n = 211),0.68
same,PFS HR (95% CI),[1]; BEP (n = 211),0.9
same,OS HR (95% CI),[1]; ITT (n = 287),0.69 and 0.73
same,PFS HR (95% CI),[1]; ITT (n = 287),0.92 and 0.94
same,OS HR,[1]; [3],0.59
same,PFS HR,[1]; [3],0.68
same,OS HR,[1]; [4],0.56
same,PFS HR,[1]; [4],0.57
same,OS HR,[1]; [5],0.51
same,PFS HR,[1]; [5],0.58
same,median OS,"[1]; bTMB≥16, per treatment arm",13.0 months
same,median PFS,"[1]; bTMB≥16, per treatment arm",4.2 months
same,PFS HR,"[1]; reference bTMB score of 18 (Dx+, n=52)",0.57
same,PFS HR,[2],0.62
